Experiment: The compound was evaluated for inhibition of HIV-1 mutant […] recombinant reverse transcriptase
In the case of Cc1cn(C2OC(CO[Si](C)(C)C(C)(C)C)CC2O[Si](C)(C)C(C)(C)C)c(=O)n(CC(=O)O)c1=O (stereo unspecified) [{3-[3-(tert-Butyl-dimethyl-silanyloxy)-5-(tert-butyl-dimethyl-silanyloxymethyl)-tetrahydro-furan-2-yl]-5-methyl-2,6-dioxo-3,6-dihydro-2H-pyrimidin-1-yl}-acetic acid], the EC50 is reported as 4.5 µM. With Cc1cn([C@@H]2O[C@H](CO)[C@@H](O)[C@H]2O[Si](C)(C)C(C)(C)C)c(=O)n(CC(=O)OCc2ccccc2)c1=O the EC50 was 4 µM. For Cc1cn([C@@H]2O[C@H](CO[Si](C)(C)C(C)(C)C)[C@@H](O)[C@H]2O[Si](C)(C)C(C)(C)C)c(=O)n(CC(=O)O)c1=O, the EC50 was 4.5 µM. With Cc1cn(C2O[C@H](CO[Si](C)(C)C(C)(C)C)[C@@H](O)[C@H]2O)c(=O)n(CC(=O)O)c1=O (stereo partly specified) the EC50 was 117 µM. Cc1cn(C2CCC(CO[Si](C)(C)C(C)(C)C)O2)c(=O)n(CC(=O)OCc2ccccc2)c1=O (stereo unspecified) showed an EC50 greater than 250 µM. Work on Cc1cn([C@@H]2O[C@H](CO)[C@@H](O)[C@H]2O[Si](C)(C)C(C)(C)C)c(=O)n(CC(=O)O)c1=O yielded an EC50 of 20 µM. With Cc1cn([C@@H]2O[C@H](CO[Si](C)(C)C(C)(C)C)[C@@H](O[Si](C)(C)C(C)(C)C)[C@H]2O[Si](C)(C)C(C)(C)C)c(=O)n(CC(=O)O)c1=O the EC50 was 32 µM. Cc1cn([C@@H]2O[C@H](CO[Si](C)(C)C(C)(C)C)[C@@H](O[Si](C)(C)C(C)(C)C)[C@H]2O[Si](C)(C)C(C)(C)C)c(=O)n(CC(=O)OCc2ccccc2)c1=O gave an EC50 greater than 10 µM. Work on Cc1cn([C@H]2C[C@H](O[Si](C)(C)C(C)(C)C)[C@@H](CO[Si](C)(C)C(C)(C)C)O2)c(=O)n(CC(=O)O)c1=O yielded an EC50 of 5 µM. With Cc1cn([C@@H]2O[C@H](CO[Si](C)(C)C(C)(C)C)[C@@H](O[Si](C)(C)C(C)(C)C)[C@H]2O)c(=O)n(CC(=O)OCc2ccccc2)c1=O the EC50 was greater than 50 µM.

Experiment: Effective concentration required to inhibit HIV-1 induced cytopathicity by 50% in CEM cells
Cc1cn([C@@H]2O[C@H](CO[Si](C)(C)C(C)(C)C)[C@@H](O[Si](C)(C)C(C)(C)C)[C@H]2O)c(=O)n(CC(=O)O)c1=O [{3-[4-(tert-Butyl-dimethyl-silanyloxy)-5-(tert-butyl-dimethyl-silanyloxymethyl)-3-hydroxy-tetrahydro-furan-2-yl]-5-methyl-2,6-dioxo-3,6-dihydro-2H-pyrimidin-1-yl}-acetic acid] showed an EC50 of 1.8 µM.

Source: BindingDB's records for doi:10.1016/s0960-894x(01)00635-7 (Instituto De Química Médica (Csic), 2001)
